Assay results from PubChem BioAssay (NCI).
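Method: 48-hour compound exposure of cells in 96-well plates, five concentrations, linear interpolation of endpoints. The concentration for 50% growth inhibition is given as GI50. TGI denotes the concentration required for complete inhibition of growth.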

Columns and labels:
Experiment in all cases: inhibition of tumour cell growth, NCI panel, 48 h
DU-145 prostate = test system: DU-145 prostate
HCT-15 colon = test system: HCT-15 colon
LOX IMVI melanoma = test system: LOX IMVI melanoma
MCF7 breast = test system: MCF7 breast
MDA-MB-231 breast = test system: MDA-MB-231 breast
OVCAR-5 ovarian = test system: OVCAR-5 ovarian
PC-3 prostate = test system: PC-3 prostate
SF-539 CNS = test system: SF-539 CNS
T-47D breast = test system: T-47D breast
UO-31 renal = test system: UO-31 renal

Compound | GI50 (DU-145 prostate) | TGI (DU-145 prostate) | GI50 (HCT-15 colon) | TGI (HCT-15 colon) | GI50 (LOX IMVI melanoma) | TGI (LOX IMVI melanoma) | GI50 (MCF7 breast) | TGI (MCF7 breast) | GI50 (MDA-MB-231 breast) | TGI (MDA-MB-231 breast) | GI50 (OVCAR-5 ovarian) | TGI (OVCAR-5 ovarian) | GI50 (PC-3 prostate) | TGI (PC-3 prostate) | GI50 (SF-539 CNS) | TGI (SF-539 CNS) | GI50 (T-47D breast) | TGI (T-47D breast) | GI50 (UO-31 renal) | TGI (UO-31 renal)
NC(=O)Cc1ccccc1Oc1nccc(-c2c(-c3ccc(F)cc3)ncn2C2CCNCC2)n1 | > 25 µM | > 25 µM | > 25 µM | > 25 µM | > 25 µM | > 25 µM | > 25 µM | > 25 µM | > 25 µM | > 25 µM | > 25 µM | > 25 µM | > 25 µM | > 25 µM | > 25 µM | > 25 µM | > 25 µM | > 25 µM | > 25 µM | > 25 µM
Cc1nc(NC(=O)COc2cccc(/C=C3\COc4ccccc4C3=O)c2)sc1C | 2.1 µM | 4.09 µM | 2.04 µM | 5.2 µM | 1.01 µM | 2.55 µM | 0.665 µM | 2.83 µM | 2.63 µM | 7.41 µM | 1.94 µM | 3.88 µM | 1.76 µM | 4.05 µM | 1.73 µM | 3.46 µM | 2.9 µM | 10.4 µM | 0.704 µM | 1.63 µM
O=[N+]([O-])c1ccccc1S(=O)(=O)c1ccccc1[N+](=O)[O-] | – | > 100 µM | – | > 100 µM | – | > 100 µM | – | > 100 µM | – | > 100 µM | – | > 100 µM | – | > 100 µM | – | > 96.8 µM | – | > 100 µM | – | > 100 µM
Nc1ccccc1C#Cc1ccccc1C#Cc1ccccc1N | 11.3 µM | 28.6 µM | 3.42 µM | 16.8 µM | 7.31 µM | 20.9 µM | 12.4 µM | > 100 µM | 9.04 µM | 24.6 µM | 27.6 µM | 67.4 µM | 5.31 µM | 23.3 µM | 5.4 µM | 21.1 µM | 17.1 µM | 38.4 µM | 6.34 µM | 22.5 µM
Cn1c(=O)c(Sc2ccccc2F)cc2cnc(NC3CCOCC3)nc21 | > 25 µM | > 25 µM | > 25 µM | > 25 µM | > 25 µM | > 25 µM | > 25 µM | > 25 µM | > 25 µM | > 25 µM | > 25 µM | > 25 µM | > 25 µM | > 25 µM | > 25 µM | > 25 µM | > 25 µM | > 25 µM | > 25 µM | > 25 µM
COc1ccccc1/C=C1\CCC(CN(C)C)C1=O (stereo not given) | – | 47.1 µM | – | 7.85 µM | – | 4.67 µM | – | 5.87 µM | – | 5.78 µM | – | 24.2 µM | – | 18 µM | – | 27.2 µM | – | 28.8 µM | – | 18 µM
